One assay has as its system α-secretase. Put plainly: α-secretase cleavage product (sAPPα) in culture supernatant of COS7 cells transiently expressing mutated APP, Western blotting. It is filed as cell-based, monkey. The arrangement: key to α-cleavage: ↓: indicates a reduced amount of secretase cleavage product; →: indicates an unchanged amount of each secretase cleavage product; ↑: indicates an increased amount of secretase cleavage product; 0: indicates no detection of each secretase cleavage product. Conditions: for α-cleavage: amount of sAPPα versus wild-type APP, 48 hours after transfection; for amount of α-secretase cleavage product: in words, versus wild-type APP. An excerpt:
(§1) BE11-hAPP695 was used as a starting material which was produced by adding a BE11 epitope tag immediately after a signal peptide of the N-terminus of a human-type APP gene (FIG. 2) and incorporating it into a vector. With respect to the amino acid at the N-treminus of the α-secretase cleavage site of APP695 (lysine at position 16 of β-amyloid) or the amino acid at the C-terminus (leucine at position 17 of β-amyloid), tryptophan was introduced into position 16 and alanine, glutamic acid, lysine, proline, glutamine, and threonine were introduced into position 17 by the site-directed mutagenesis (QuickChange, Stratagene). A construct was produced in which these mutated APPs and wild-type APPs are respectively incorporated into a pCIneo mammalian expression vector (Promega), and the construct was then transfected to a COS7 cell by a liposome method (DOTAP, Boeringer Manheim), to achieve transient expression. Forty-eight hours after transfection, the cell and culture supernatant were collected, and the expressed proteins and the processing were analyzed by 8% SDS-PAGE/Western blotting. The expression of a cell membrane-associated full-length APP confirmed using the monoclonal antibody (Mab BE11) against BE11. The expression level was standardized, and then α-secretase cleavage products (sAPPα) and β-secretase cleavage products (sAPPβ) which were secreted in the culture supernatant (medium) were detected and quantified using a specific antibody against the respective products.

For another assay, the system named is β-secretase. Put plainly: β-secretase cleavage product (sAPPβ) in culture supernatant of COS7 cells transiently expressing mutated APP, Western blotting. In kind it is cell-based, monkey. The arrangement: key to β-cleavage: ↓: indicates a reduced amount of secretase cleavage product; →: indicates an unchanged amount of each secretase cleavage product; ↑: indicates an increased amount of secretase cleavage product; 0: indicates no detection of each secretase cleavage product. Conditions: for β-cleavage: amount of sAPPβ versus wild-type APP, 48 hours after transfection.
Text: as §1

On to “Trp (position 16): human APP695 modified protein, lysine at position 16 of β-amyloid replaced with tryptophan”, for which, in the assay on α-secretase, the α-cleavage result is reported as “↓↓” and the “amount of α-secretase cleavage product” value is “sharply decreased”. Also, the β-cleavage entry with β-secretase is on record as “→”.

Regarding “Lys (position 17): human APP695 modified protein, leucine at position 17 of β-amyloid replaced with lysine”, in the assay on α-secretase, the α-cleavage entry is on record as “↓↓” and the “amount of α-secretase cleavage product” value was “decreased”. The β-cleavage result in the assay with β-secretase is given as “↑”. Moreover, the “amount of β-secretase cleavage product” value in the assay on β-secretase (in words, versus wild-type APP) is “slightly increased”.

On to “Glu (position 17): human APP695 modified protein, leucine at position 17 of β-amyloid replaced with glutamic acid”, for which, in the assay on α-secretase, the α-cleavage worked out at 0 and the “amount of α-secretase cleavage product” value is on record as “No α-secretase cleavage product was detected”. The β-cleavage result in the assay with β-secretase is “→”.

Turning to “Ala (position 17): human APP695 modified protein, leucine at position 17 of β-amyloid replaced with alanine”, in the assay with α-secretase, the α-cleavage result is on record as “↓” and the “amount of α-secretase cleavage product” value is “decreased”. Besides, in the assay on β-secretase, the β-cleavage result was “→”.

In the case of “Pro (position 17): human APP695 modified protein, leucine at position 17 of β-amyloid replaced with proline”, in the assay with α-secretase, the α-cleavage worked out at 0 and the “amount of α-secretase cleavage product” value is “No α-secretase cleavage product was detected”. The β-cleavage entry in the assay on β-secretase is listed as “→”.

The values above are taken from patent US20060160146A1, “Method of screening compound affecting amyloid beta production” (OTSUKA PHARMACEUTICAL CO., LTD., priority 2002, published 2006).
